Reference: patent publication US20040014144A1, “Method of screening for substances acting on MSK1” (Leo Pharmaceutical Products Ltd. A/S, priority 1999, published 2004)

Tests used:
[1] = test system: TNF-α secretion in THP-1 cells; assay: LPS induced secretion of TNF-α in THP-1 cells, enzyme immuno assay; format: cell-based, human; details: for inhibition of secretion of TNF-α: THP-1 cells, 1 μM of each compound, 60 min preincubation, 1 μg/ml LPS 5 hours
Protocol: (§1) The mononuclear cells (PBMC) were isolated from human peripheral blood by Lymphoprep® fractionation (Nycomed, Norway) and the THP-1 cells were obtained from the American Type Culture Collection (Accession No. TIB-202). Both cell lines were suspended in RPMI 1640 with 2% fetal calf serum (FCS), 2 mM L-glutamine, 100 U/ml penicillin and […] streptomycin. […] Louis, Mo., USA). […] The levels of IL-1β and TNF-α were measured in the culture supernatant by enzyme immuno assays (monoclonal antibodies were obtained from R & D Systems, Abingdon, UK).

[2] = test system: IL-1β secretion in PBMC; assay: LPS induced secretion of IL-1β in PBMC, enzyme immuno assay; format: cell-based, human; details: for inhibition of secretion of IL-1β: 30 min preincubation, 1 μg/ml LPS 18 hours
Protocol: as §1

[3] = test system: NFκB transcriptional activity in THP-1 cells; assay: NFκB-luciferase reporter gene assay in LPS stimulated THP-1 cells; format: cell-based, human; details: for reporter gene (luciferase) activity, % of the control value: THP-1 cells transfected with pBIIX, 1 μM of each compound, 1 hour pretreatment, 1 μg/ml LPS 5 h
Protocol: All transfections were performed in triplicate.

[4] = test system: TNF-α secretion in PBMC; assay: LPS induced secretion of TNF-α in PBMC, enzyme immuno assay; format: cell-based, human; details: for inhibition of secretion of TNF-α: 30 min preincubation, 1 μg/ml LPS 18 hours
Protocol: as §1

[5] = target: MSK1 (Homo sapiens, UniProt O75582); details: from reference (5); cited from earlier work
Sequence of MSK1 (O75582 whole entry): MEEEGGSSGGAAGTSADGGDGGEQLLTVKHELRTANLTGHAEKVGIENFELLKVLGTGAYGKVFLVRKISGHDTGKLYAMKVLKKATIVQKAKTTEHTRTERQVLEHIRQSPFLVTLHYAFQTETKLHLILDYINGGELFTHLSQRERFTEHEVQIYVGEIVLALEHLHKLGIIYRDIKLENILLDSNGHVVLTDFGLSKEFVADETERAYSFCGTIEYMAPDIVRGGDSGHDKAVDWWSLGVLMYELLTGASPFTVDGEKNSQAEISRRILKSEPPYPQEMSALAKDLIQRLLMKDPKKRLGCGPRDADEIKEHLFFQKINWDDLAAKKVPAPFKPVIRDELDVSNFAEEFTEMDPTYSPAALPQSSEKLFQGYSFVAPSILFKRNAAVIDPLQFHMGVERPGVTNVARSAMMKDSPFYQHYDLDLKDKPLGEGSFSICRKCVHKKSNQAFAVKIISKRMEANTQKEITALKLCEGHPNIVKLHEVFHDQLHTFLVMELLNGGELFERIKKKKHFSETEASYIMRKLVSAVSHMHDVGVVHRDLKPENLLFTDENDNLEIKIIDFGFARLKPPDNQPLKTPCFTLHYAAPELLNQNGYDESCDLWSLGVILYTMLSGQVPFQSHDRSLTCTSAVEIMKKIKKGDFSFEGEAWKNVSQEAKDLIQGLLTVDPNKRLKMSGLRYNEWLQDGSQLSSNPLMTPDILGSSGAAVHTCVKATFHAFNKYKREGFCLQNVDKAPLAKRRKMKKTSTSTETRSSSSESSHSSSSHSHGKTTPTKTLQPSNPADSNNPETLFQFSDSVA

[6] = test system: THP-1 or peripheral blood mononuclear cells (PBMC); assay: LPS induced secretion of TNF-α and IL-1β in THP-1 or PBMC (summary statement); format: cell-based, human
Protocol: as §1

Compound | inhibition of secretion of TNF-α [1] [%] | inhibition of secretion of IL-1β ([2]; 10 μM compound) | reporter gene (luciferase) activity, % of the control value [3] | inhibition of secretion of TNF-α ([4]; 10 μM compound) | inhibition of MSK1 activity in vitro [5] | LPS induced secretion of TNF-α and IL-1β [6] | inhibition of secretion of IL-1β ([2]; 1 μM compound) | LPS induced NFκB transcriptional activity ([3]; THP-1 cells, summary statement) | inhibition of secretion of TNF-α ([4]; 1 μM compound) | inhibition at 1 µM ([1]; Homo sapiens, THP-1, read-out: inhibition of secretion of TNF-α) [%] | inhibition at 1 µM ([2]; Homo sapiens, read-out: inhibition of secretion of IL-1β) [%] | inhibition at 1 µM ([4]; Homo sapiens, read-out: inhibition of secretion of TNF-α) [%]
COc1cccc(-c2cc(=O)c3ccccc3o2)c1N [PD98059] | 5 | about 40% | no effect | about 40% |  |  |  |  |  |  |  | 
Cn1cc(C2=C(c3cn(CCCSC(=N)N)c4ccccc34)C(=O)NC2=O)c2ccccc21 [Ro318220] | 50 |  | 15% |  | potent inhibitor | strongly inhibited | approximately 90% | strongly inhibited | approximately 90% |  |  | 
C[S+]([O-])c1ccc(-c2nc(-c3ccncc3)c(-c3ccc(F)cc3)[nH]2)cc1 (stereo not drawn) [SB203580] |  |  | 49% |  |  |  |  |  |  | 30 | 40 to 60 | 40 to 60
